≈ marks a conversion by molar mass, not a printed value. Counter-ions that a name gives are not always drawn. Like-named read-outs stand apart in the source and are kept apart here.
Legend:
P. aeruginosa GN-918* = assay: MIC, agar dilution, standard method of Japan Society of Chemotherapy; format: cell-based; settings: Pseudomonas aeruginosa
Protocol: (§1) According to the standard method of Japan Society of Chemotherapy [CHEMOTHERAPY, 29 (1), 76-79 (1981)], a bacteria solution obtained by culturing in Heart Infusion broth (manufactured by Eiken Kagaku) at 37° C. for 20 hours was inoculated onto a Heart Infusion agar containing a drug and cultured at 37° C. for 20 hours, after which the growth of the bacteria was observed, to determine the minimum concentration at which the growth of the bacteria was inhibited as MIC (μg/ml). The amount of the inoculated bacteria was 10^4 cells/plate (10^6 cells/ml).
(§2) The asterisk in Table 1 means β-Lactamase-producing bacteria.

K. pneumoniae Y-4* = assay: as above; format: cell-based; settings: Klebsiella pneumoniae
Protocol: as §1, §2

E. coli NIHJ = assay: as above; format: cell-based; settings: Escherichia coli, Heart Infusion agar, 37° C., 20 hours, 10^4 cells/plate (10^6 cells/ml)
Protocol: as §1

E. coli TK-111 = assay: as above; format: cell-based; settings: Escherichia coli, TK111, Heart Infusion agar, 37° C., 20 hours, 10^4 cells/plate (10^6 cells/ml)
Protocol: as §1

S. marcescens W-134 = assay: as above; format: cell-based; settings: Serratia marcescens, W134, Heart Infusion agar, 37° C., 20 hours, 10^4 cells/plate (10^6 cells/ml)
Protocol: as §1

C. freundii N-7 = assay: as above; format: cell-based; settings: Citrobacter freundii
Protocol: as §1

M. morganii T-216 = assay: as above; format: cell-based; settings: Morganella morganii, T216, Heart Infusion agar, 37° C., 20 hours, 10^4 cells/plate (10^6 cells/ml)
Protocol: as §1

P. mirabilis T-111 = assay: as above; format: cell-based; settings: Proteus mirabilis, T111, Heart Infusion agar, 37° C., 20 hours, 10^4 cells/plate (10^6 cells/ml)
Protocol: as §1

[1] = Acute toxicity, intravenous, mice; settings: mouse, in vivo, ICR strain male mice, 22±1 g, in 0.1N aqueous sodium hydroxide, read-out: 50% lethal dosage (LD50)
Protocol: A test compound was intravenously administered to a group of three ICR strain male mice each weighing 22±1 g to investigate the acute toxicity.
The test compound was dissolved in a 0.1N aqueous sodium hydroxide solution, and the resulting solution was applied.

[2] = GN918, P. aeruginosa GN-918, β-Lactamase-producing, Heart Infusion agar, 37° C., 20 hours, 10^4 cells/plate (10^6 cells/ml), read-out: MIC
[3] = K. pneumoniae Y-4, β-Lactamase-producing, Heart Infusion agar, 37° C., 20 hours, 10^4 cells/plate (10^6 cells/ml), read-out: MIC
[4] = N7, C. freundii N-7, Heart Infusion agar, 37° C., 20 hours, 10^4 cells/plate (10^6 cells/ml), read-out: MIC

| MIC (K. pneumoniae Y-4*; [3]) [µg/mL] | Compound | MIC (P. aeruginosa GN-918*; [2]) [µg/mL] | MIC (K. pneumoniae Y-4*; 20 h) [µg/mL] | MIC (E. coli NIHJ) [µg/mL] | MIC (E. coli TK-111) [µg/mL] | MIC (S. marcescens W-134) [µg/mL] | MIC (C. freundii N-7; N7, 20 h) [µg/mL] | MIC (M. morganii T-216) [µg/mL] | MIC (P. mirabilis T-111) [µg/mL] | MIC (C. freundii N-7; [4]) [µg/mL] | LD50 [1] [mg/kg] | MIC (P. aeruginosa GN-918*; GN918, 20 h) [µg/mL] |
| --- | --- | --- | --- | --- | --- | --- | --- | --- | --- | --- | --- | --- |
| – | CC1COc2c(N3CCN(C)CC3)c(F)cc3c(=O)c(C(=O)O)cn1c23 (racemic) [Control compd., (±)9-Fluoro-2,3-dihydro-3-methyl-10-(4-methyl-1-piperazinyl)-7-oxo-7H-pyrido[1,2,3-de][1,4]benzoxazine-6carboxylic acid, reference compound] | 3.13 (≈ 8.66 µM) | 0.39 (≈ 1.08 µM) | ≤ 0.05 | ≤ 0.05 | 0.2 (≈ 0.553 µM) | 0.39 (≈ 1.08 µM) | 0.1 (≈ 0.277 µM) | 0.39 (≈ 1.08 µM) | – | – | – |
| 0.2 | CC1COc2c(C3(N)CC3)c(F)cc3c(=O)c(C(=O)O)cn1c23.Cl (stereo not shown) [Test Compound 1, 10-(1-Aminocyclopropyl)-9-fluoro-3-methyl-7-oxo-2,3-dihydro-7H-pyrido[1,2,3-de][1,4] benzoxazine-6carboxylic acid hydrochloride] | 0.2 | – | ≤ 0.05 | ≤ 0.05 | 0.1 | – | ≤ 0.05 | 0.1 | ≤ 0.05 | – | – |
| – | CC1COc2c(C3(N)CC3)c(F)c(N)c3c(=O)c(C(=O)O)cn1c23.Cl (stereo not shown) [Test Compound 2, 8-Amino-10-(1-aminocyclopropyl)-9-fluoro-3-methyl-7-oxo-2,3-dihydro-7H-pyrido[1,2,3-de][1,4]-benzoxazine-6-carboxylic acid hydrochloride] | 0.78 | 0.39 | ≤ 0.05 | ≤ 0.05 | 0.2 | – | 0.1 | 0.39 | 0.1 | – | – |
| – | CC1COc2c(C3(N)CC3)c(F)c(F)c3c(=O)c(C(=O)O)cn1c23.Cl (stereo not shown) [Test Compound 3, 10-(1-Aminocyclopropyl)-8,9-difluoro-3-methyl-7-oxo-2,3-dihydro-7H-pyrido[1,2,3-de][1,4]benzoxazine-6-carboxylic acid hydrochloride] | 0.78 | 0.39 | ≤ 0.05 | ≤ 0.05 | 0.2 | – | ≤ 0.05 | 0.2 | 0.2 | – | – |
| – | CC1COc2c(C3(N)CC3)c(F)c(O)c3c(=O)c(C(=O)O)cn1c23.Cl (stereo not shown) [Test Compound 4, 10-(1-Aminocyclopropyl)-9-fluoro-8-hydroxy-3-methyl-7-oxo-2,3-dihydro-7H-pyrido[1,2,3-de][1,4]-benzoxazine-6-carboxylic acid hydrochloride] | 0.78 | 0.39 | ≤ 0.05 | ≤ 0.05 | 0.2 | 0.39 | ≤ 0.05 | 0.2 | – | – | – |
| 0.2 | Cl.NC1(c2c(F)cc3c(=O)c(C(=O)O)cn4c3c2OCC4CF)CC1 (stereo not shown) [Test Compound 6, 10-(1-Aminocyclopropyl)-9-fluoro-3-fluoromethyl-7-oxo-2,3-dihydro-7H-pyrido[1,2,3-de][1,4]benzoxazine-6-carboxylic acid hydrochloride] | 0.2 | – | ≤ 0.05 | ≤ 0.05 | 0.1 | – | ≤ 0.05 | 0.1 | 0.1 | – | – |
| 0.2 | CC[C@H]1COc2c(C3(N)CC3)c(F)cc3c(=O)c(C(=O)O)cn1c23.Cl [Test Compound 7, (S)-10-(1-aminocyclopropyl)-3-ethyl-9-fluoro-7-oxo-2,3-dihydro-7H-pyrido[1,2,3-de][1,4]benzoxazine-6carboxylic acid hydrochloride] | 0.2 | – | ≤ 0.05 | ≤ 0.05 | 0.1 | – | ≤ 0.05 | 0.2 | 0.1 | – | – |
| – | NC1(c2c(F)cc3c(=O)c(C(=O)O)cn4c3c2OCC42CC2)CC1 [Test Compound 9, 10'-(1-Aminocyclopropyl)-9'-fluoro-7+-oxospiro{cyclopropane-1,3'(2'H)-[7H]-pyrido[1,2,3-de][1,4]benzoxazine}-6'-carboxylic acid hydrochloride] | – | 0.39 | 0.1 | ≤ 0.05 | 0.2 | – | 0.1 | 0.39 | 0.2 | – | 0.39 |
| 0.2 | CC1CC1(N)c1c(F)cc2c(=O)c(C(=O)O)cn3c2c1OC[C@@H]3C.Cl (stereo partly drawn) [Test Compound 10, (S)-10-(1-amino-2-methylcyclopropyl)-9-fluoro-3-methyl-7-oxo-2,3-dihydro-7H-pyrido[1,2,3-de][1,4]-benzoxazine-6-carboxylic acid hydrochloride] | 0.2 | – | ≤ 0.05 | ≤ 0.05 | 0.1 | – | ≤ 0.05 | 0.2 | ≤ 0.05 | – | – |
| 0.1 | CNC1(c2c(F)cc3c(=O)c(C(=O)O)cn4c3c2OC[C@@H]4C)CC1.Cl [Test Compound 11, (S)-10-[1-(N-methylamino)cyclopropyl]-9-fluoro-3-methyl-7-oxo-2,3-dihydro-7H-pyrido[1,2,3-de][1,4]-benzoxazine-6-carboxylic acid hydrochloride] | 0.2 | – | ≤ 0.05 | ≤ 0.05 | 0.1 | – | ≤ 0.05 | 0.1 | 0.1 | – | – |

| Compound | MIC (K. pneumoniae Y-4*; [3]) [µg/mL] | MIC (P. aeruginosa GN-918*; [2]) [µg/mL] | MIC (K. pneumoniae Y-4*; 20 h) [µg/mL] | MIC (E. coli NIHJ) [µg/mL] | MIC (E. coli TK-111) [µg/mL] | MIC (S. marcescens W-134) [µg/mL] | MIC (C. freundii N-7; N7, 20 h) [µg/mL] | MIC (M. morganii T-216) [µg/mL] | MIC (P. mirabilis T-111) [µg/mL] | MIC (C. freundii N-7; [4]) [µg/mL] | LD50 [1] [mg/kg] | MIC (P. aeruginosa GN-918*; GN918, 20 h) [µg/mL] |
| --- | --- | --- | --- | --- | --- | --- | --- | --- | --- | --- | --- | --- |
| C[C@H]1COc2c(C3(N)CC3)c(F)cc3c(=O)c(C(=O)O)cn1c23.Cl [Test Compound 5, (S)-10-(1-aminocyclopropyl)-9-fluoro-3-methyl-7-oxo-2,3-dihydro-7H-pyrido[1,2,3-de][1,4]benzoxazine-6-carboxylic acid hydrochloride] | ≤ 0.05 | 0.1 | – | ≤ 0.05 | ≤ 0.05 | ≤ 0.05 | – | ≤ 0.05 | ≤ 0.05 | ≤ 0.05 | > 1000 | – |
| Br.C=C1COc2c(C3(N)CC3)c(F)cc3c(=O)c(C(=O)O)cn1c23 [Test Compound 8, 10-(1-Aminocyclopropyl)-9-fluoro-3-methylene-7-oxo-2,3-dihydro-7H-pyrido[1,2,3-de][1,4]benzoxazine-6-carboxylic acid hydrobromide] | 0.2 | – | – | 0.1 | ≤ 0.05 | 0.2 | – | 0.1 | 0.39 | 0.1 | – | 0.39 |

From patent US4990508A, “Pyridone carboxylic acid derivatives and salts thereof, process for producing the same and antibacterial agents comprising the same” (Toyama Chemical Co., Ltd., priority 1988, dated 1991)
